Structures can show the parent of a compound that is named as a salt.
Each compound was assayed against T1, human NaPi-IIb (Homo sapiens, UniProt O95436) (assay: Inhibitory effect on 33PO4 uptake into human NaPi-IIb-expressing CHO cells). Conditions: read-out: IC50.
T1 construct: expressed in transfected cells
T1 sequence (O95436 1-690): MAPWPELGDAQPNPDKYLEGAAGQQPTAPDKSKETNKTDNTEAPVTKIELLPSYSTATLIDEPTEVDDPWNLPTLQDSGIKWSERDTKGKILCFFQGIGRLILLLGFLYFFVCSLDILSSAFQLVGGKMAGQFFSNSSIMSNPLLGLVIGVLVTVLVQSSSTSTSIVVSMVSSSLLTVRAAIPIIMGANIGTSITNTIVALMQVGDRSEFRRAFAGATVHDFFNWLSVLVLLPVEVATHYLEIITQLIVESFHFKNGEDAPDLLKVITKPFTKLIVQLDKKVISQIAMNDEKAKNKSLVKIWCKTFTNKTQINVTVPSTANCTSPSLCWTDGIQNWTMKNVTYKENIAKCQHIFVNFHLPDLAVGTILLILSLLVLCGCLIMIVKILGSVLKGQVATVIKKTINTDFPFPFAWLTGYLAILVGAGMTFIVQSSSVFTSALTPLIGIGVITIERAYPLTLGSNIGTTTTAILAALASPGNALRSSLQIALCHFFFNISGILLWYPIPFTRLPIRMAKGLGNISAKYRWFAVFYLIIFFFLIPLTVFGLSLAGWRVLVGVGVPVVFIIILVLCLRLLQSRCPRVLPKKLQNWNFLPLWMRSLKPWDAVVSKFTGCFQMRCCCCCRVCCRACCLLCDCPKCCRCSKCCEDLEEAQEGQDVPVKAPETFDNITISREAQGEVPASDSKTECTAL
Format: cell-based
In short: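 Uptake of ³³PO4 was measured by scintillation counting after ice-cold buffer A washes. Cells were CHO stably expressing human NaPi-IIb, seeded overnight, and exposed to ³³PO4 in buffer A at room temperature.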

SMILES | IC50 [µM]
C[C@]12CCCN1N(Cc1ccc(OCCCCOC[C@H](O)CO)c(F)c1F)C(=O)C(C(=O)Nc1ccc(Cl)cc1-c1ccc(C(F)(F)F)nc1)=C2O [Example 121, (4aR)—N-[4-Chloro-2-[6-(trifluoromethyl)pyridin-3-yl]phenyl]-1-[[4-[4-[(2R)-2,3-dihydroxypropoxy]butoxy]-2,3-difluorophenyl]methyl]-4-hydroxy-4a-methyl-2-oxo-6,7-dihydro-5H-pyrrolo[1,2-b]pyridazine-3-carboxamide] | 16
Cc1cccc(CN2C(=O)C(C(=O)Nc3ccc(C(F)(F)F)cc3-c3cc(C(F)(F)F)ncn3)=C(O)[C@@]3(C)CCCN23)c1 [Example 186] | 5.5
CN1N(Cc2cccc(F)c2F)C(=O)C(C(=O)Nc2ccc(C(F)(F)F)cc2-c2ccc(C(F)(F)F)nc2)=C(O)C12CCC2 [Example 301] | 2.6
C[C@]12CCCN1N(Cc1cccc(C#N)c1)C(=O)C(C(=O)Nc1cc(F)c(Br)c(F)c1)=C2O [Example 220] | 12.2
COc1cccc(-c2cc(C(F)(F)F)ccc2NC(=O)C2=C(O)[C@@]3(C)CCCN3N(Cc3ccc(C#CCCCCO)c(F)c3F)C2=O)c1OC [Example 135] | 12.3
C[C@]12CCCN1N(Cc1ccccc1F)C(=O)C(C(=O)Nc1ccc(C(F)(F)F)cc1-c1cc(C(F)(F)F)ncn1)=C2O [Example 207] | 6.5
C[C@]12CCCN1N(Cc1c(Cl)cc(OCCN3CCOCC3)cc1Cl)C(=O)C(C(=O)Nc1ccc(C(F)(F)F)nc1-c1ccc(C(F)(F)F)nc1)=C2O [Example 148, (4aR)-1-[[2,6-Dichloro-4-(2-morpholin-4-ylethoxy)phenyl]methyl]-4-hydroxy-4a-methyl-2-oxo-N-[6-(trifluoromethyl)-2-[6-(trifluoromethyl)pyridin-3-yl]pyridin-3-yl]-6,7-dihydro-5H-pyrrolo[1,2-b]pyridazine-3-carboxamide hydrochloride] | 8.5
CSc1ccc(-c2cc(C(F)(F)F)ccc2NC(=O)C2=C(O)[C@@]3(C)CCCN3N(Cc3ccc(OCCCCOC[C@H](O)CO)c(F)c3F)C2=O)cn1 [Example 120, (4aR)-1-[[4-[4-[(2R)-2,3-Dihydroxypropoxy]butoxy]-2,3-difluorophenyl]methyl]-4-hydroxy-4a-methyl-N-[2-(6-methylsulfanylpyridin-3-v1)-4-(trifluoromethyl)phenyl]-2-oxo-6,7-dihydro-5H-pyrrolo[1,2-b]pyridazine-3-carboxamide] | 20.5
C[C@]12CCCN1N(Cc1cccc(Cl)c1)C(=O)C(C(=O)Nc1ccc(C(F)(F)F)cc1-c1cc(C(F)(F)F)ncn1)=C2O [Example 181] | 4.8
CSc1ccc(-c2cc(C(F)(F)F)ccc2NC(=O)C2=C(O)C3(CCCC3)N(C)N(Cc3ccc(OCCN4CCOCC4)c(F)c3F)C2=O)cn1 [Example 289] | 16.3
C[C@]12CCCN1N(Cc1cccc(F)c1F)C(=O)C(C(=O)Nc1ccc(Br)c(F)c1)=C2O [Example 28] | 4.1
CN1N(Cc2cccc(F)c2F)C(=O)C(C(=O)Nc2ccc(Cl)cc2-c2cc(C(F)(F)F)ncn2)=C(O)C12CCCC2 [Example 261] | 7.7
C[C@]12CCCN1N(Cc1c(F)cccc1F)C(=O)C(C(=O)Nc1ccc(C(F)(F)F)cc1-c1ccc(C(F)(F)F)nc1)=C2O [Example 203] | 2
CCOc1cccc(-c2cc(C(F)(F)F)ccc2NC(=O)C2=C(O)[C@@]3(C)CCCN3N(Cc3cccc(F)c3F)C2=O)c1OC [Example 66] | 17.3
CSc1ccc(-c2cc(C(F)(F)F)ccc2NC(=O)C2=C(O)[C@@]3(C)CCCN3N(Cc3ccc(C#CCCCCC(=O)O)c(F)c3F)C2=O)cn1 [Example 117, 7-[4-[[(4aR)-4-Hydroxy-4a-methyl-3-[[2-(6-methylsulfanylpyridin-3-yl)-4-(trifluoromethyl)phenyl]carbamoyl]-2-oxo-6,7-dihydro-5H-pyrrolo[1,2-b]pyridazin-1-yl]methyl]-2,3-difluorophenyl]hept-6-ynoate] | 9.5
C[C@]12CCCN1N(Cc1cccc(F)c1F)C(=O)C(C(=O)Nc1ccc(C(F)(F)F)cc1-c1ccc(C(F)(F)F)nc1Br)=C2O [Example 85] | 6.2
CN1[C@@H](C(C)(C)C)C(O)=C(C(=O)Nc2ccc(Br)c(C(F)(F)F)n2)C(=O)N1Cc1cccc(F)c1F [Example 242] | 7.8
CSc1ncc(-c2cc(C(F)(F)F)ccc2NC(=O)C2=C(O)[C@@]3(C)CCCN3N(Cc3ccc(OCCN4CCOCC4)c(F)c3F)C2=O)cn1 [Example 104] | 10.8
C[C@]12CCCN1N(Cc1ccc(OCCN3CCOCC3)c(F)c1F)C(=O)C(C(=O)Nc1ccc(C(F)(F)F)cc1-c1ccc(C(F)(F)F)nc1)=C2O [Example 161] | 11.5
Cc1nc(NC(=O)C2=C(O)C3(CCCC3)N(C)N(Cc3cccc(F)c3F)C2=O)ccc1Br [Example 262] | 9.9
C[C@]12CCCN1N(Cc1ccc(F)c(F)c1)C(=O)C(C(=O)Nc1ccc(C(F)(F)F)cc1-c1cc(C(F)(F)F)ncn1)=C2O [Example 214] | 7
CN(CCOc1ccc(CN2C(=O)C(C(=O)Nc3ccc(C(F)(F)F)cc3-c3cc(C(F)(F)F)ncn3)=C(O)C3(CCC3)N2C)c(F)c1F)C1CCOC1 (centres unmarked) [Example 338, 6-[[2,3-Difluoro-4-[2-[methyl(oxolan-3-yl)amino]ethoxy]phenyl]methyl]-9-hydroxy-5-methyl-7-oxo-N-[4-(trifluoromethyl)-2-[6-(trifluoromethyl)pyrimidin-4-yl]phenyl]-5,6-diazaspiro[3.5]non-8-ene-8-carboxamide] | 13.4
C[C@]12CCCN1N(Cc1ccccc1C#N)C(=O)C(C(=O)Nc1cc(F)c(Br)c(F)c1)=C2O [Example 218] | 7.2
CN1N(Cc2ccc(OCCN3CCOCC3)c(F)c2F)C(=O)C(C(=O)Nc2ccc(C(F)(F)F)cc2-c2ccc(C(F)(F)F)nc2)=C(O)C1(C)C [Example 314, 2-[[2,3-Difluoro-4-(2-morpholin-4-ylethoxy)phenyl]methyl]-5-hydroxy-1,6,6-trimethyl-3-oxo-N-[4-(trifluoromethyl)-2-[6-(trifluoromethyl)pyridin-3-yl]phenyl]pyridazine-4-carboxamide] | 11.8
CN1N(Cc2cccc(F)c2F)C(=O)C(C(=O)Nc2cc(C(F)(F)F)ccc2-c2ccc(C(F)(F)F)nc2)=C(O)C1(C)C [Example 307] | 4.6

Same assay, conditions: read-out: IC50 against 33PO4 uptake into human NaPi-IIb-expressing cells

SMILES | IC50 [µM]
CN1N(Cc2ccc(OCCCOC[C@H](O)CO)c(F)c2F)C(=O)C(C(=O)Nc2ccc(C(F)(F)F)cc2-c2ccc(C(F)(F)F)nc2)=C(O)C12CCCC2 [Example 386] | 18.9
COC(C)(C)CN(C)CCOc1ccc(CN2C(=O)C(C(=O)Nc3ccc(C(F)(F)F)cc3-c3cc(C(F)(F)F)ncn3)=C(O)C3(CCC3)N2C)c(F)c1F [Example 350] | 16.9
COCCN(C)CCNc1ccc(CN2C(=O)C(C(=O)Nc3ccc(C(F)(F)F)cc3-c3cc(C(F)(F)F)ncn3)=C(O)C3(CCCC3)N2C)c(F)c1F [Example 417, 7-(2,3-Difluoro-4-((2-((2-methoxyethyl)(methyl)amino)ethyl)amino)benzyl)-10-hydroxy-6-methyl-8-oxo-N-(4-(trifluoromethyl)-2-(6-(trifluoromethyl)pyrimidin-4-yl)phenyl)-6,7-diazaspiro[4.5]dec-9-ene-9-carboxamide] | 2.2
CN1N(Cc2ccc(OC(C)(C)CN3CCOCC3)c(F)c2F)C(=O)C(C(=O)Nc2ccc(C(F)(F)F)cc2-c2cc(C(F)(F)F)ncn2)=C(O)C12CCC2 [Example 407, 6-[[2,3-Difluoro-4-(2-methyl-1-morpholin-4-ylpropan-2-yl)oxyphenyl]methyl]-9-hydroxy-5-methyl-7-oxo-N-[4-(trifluoromethyl)-2-[6-(trifluoromethyl)pyrimidin-4-yl]phenyl]-5,6-diazaspiro[3.5]non-8-ene-8-carboxamide] | 6.9
CN1N(Cc2ccc(OCCCOC[C@H](O)CO)c(F)c2F)C(=O)C(C(=O)Nc2ccc(C(F)(F)F)cc2-c2cc(C(F)(F)F)ncn2)=C(O)C12CCCC2 [Example 392] | 15.8
CN1N(Cc2ccc(OCCCCOC[C@H](O)CO)c(F)c2F)C(=O)C(C(=O)Nc2ccc(C(F)(F)F)cc2-c2ccc(C(F)(F)F)nc2)=C(O)C12CCCC2 [Example 387] | 10.7
CN1N(Cc2ccc(OCCN(CCO)CCO)c(F)c2F)C(=O)C(C(=O)Nc2ccc(C(F)(F)F)cc2-c2cc(C(F)(F)F)ncn2)=C(O)C12CCC2 [Example 351] | 25.5
CN1N(Cc2ccc(OCCCCCOC[C@H](O)CO)c(F)c2F)C(=O)C(C(=O)Nc2ccc(C(F)(F)F)cc2-c2ccc(C(F)(F)F)nc2)=C(O)C12CCC2 [Example 385] | 6.2
CN1N(Cc2ccc(OCC3CCCO3)c(F)c2F)C(=O)C(C(=O)Nc2ccc(C(F)(F)F)cc2-c2cc(C(F)(F)F)ncn2)=C(O)C12CCCC2 (centres unmarked) [Example 413] | 11.3
CN1N(Cc2ccc(OCCN3CCC(N4CCOCC4)CC3)c(F)c2F)C(=O)C(C(=O)Nc2ccc(C(F)(F)F)cc2-c2cc(C(F)(F)F)ncn2)=C(O)C12CCC2 [Example 358] | 9.2
